Laboratory results taken from ChEMBL document CHEMBL5532675, “Discovery of 4-Ethoxy-6-chloro-5-azaindazoles as Novel PDE4 Inhibitors for the Treatment of Alcohol Use Disorder and Alcoholic Liver Diseases” (J Med Chem, 2024).
Active and inactive are the calls of the source. No cut-off for these calls is given here.

Key:
[1] = AUC (0 to t) in Sprague-Dawley rat at 10 mg/kg, po measured after 24 hrs by LC-MS analysis; type: ADME, organism-based; conditions: in vivo
[2] = Half-life in Sprague-Dawley rat at 2 mg/kg, iv measured after 24 hrs by LC-MS analysis; type: ADME, organism-based; conditions: in vivo
Mus musculus [3] = experiment: Protection against alcohol-induced motor impairment in C57BL/6J mouse model assessed as recovery of average speed at 1 to 2.5 mg/kg, po preadministered with compound every 24 hrs for 3 times followed by alcohol administration 30 mins post last dose and further treated with compound for 3 days followed by alcohol administration 30 mins post last dose and measured at 2 to 20 mins by open field test; type: functional, organism-based; conditions: dose 1-2.5 mg/kg, time 8702-8720 min
Mus musculus [4] = experiment: Protection against alcoholic liver disease in NIAAA C57BL/6J mouse model assessed as reduction in serum TNF-alpha level at 1 to 2.5 mg/kg, po preadministered with 1 to 4 % of alcohol for 10 days with subsequent compound addition from day 6 to 11 and further administered with 31.25 % alcohol on day 11 and measured after 9 hrs by ELISA; type: functional, organism-based; conditions: dose 1-2.5 mg/kg, time 5.0 day
Mus musculus [5] = experiment: Protection against alcoholic liver disease in NIAAA C57BL/6J mouse model assessed as improvement of liver injury at 1 to 2.5 mg/kg, po preadministered with 1 to 4 % of alcohol for 10 days with subsequent compound addition from day 6 to 11 and further administered with 31.25 % alcohol on day 11 and measured after 9 hrs by Oil Red O staining based light microscopic analysis; type: functional, organism-based; conditions: dose 1-2.5 mg/kg, time 5.0 day
[6] = Selectivity ratio for inhibition of PDE7A (unknown origin) using FAM-cyclic-3',5'-AMP as substrate to inhibition of PDE4D7 (unknown origin) using FAM-cyclic-3',5'-AMP as substrate
[7] = Selectivity ratio for inhibition of PDE9A (unknown origin) using FAM-cyclic-3',5'-AMP as substrate to inhibition of PDE4B1 (unknown origin) using FAM-cyclic-3',5'-AMP as substrate
[8] = Drug concentration in Sprague-Dawley rat plasma at 10 mg/kg, po administered as single dose for 2 hrs by LC-MS analysis; type: ADME, organism-based
Mus musculus [9] = experiment: Protection against alcohol use disorder in C57BL/6J mouse model assessed as decrease in alcohol intake at 1 to 2.5 mg/kg, po pre-trained with alcohol and water for 42 days with subsequent compound addition on day 22 and measured after 3 weeks by two-bottle choice test; type: functional, organism-based; conditions: dose 1-2.5 mg/kg
[10] = target: 3',5'-cyclic-AMP phosphodiesterase 4D (Homo sapiens, UniProt Q08499); experiment: Inhibition of PDE4D7 (unknown origin) using FAM-cyclic-3',5'-AMP as substrate incubated for 1 hrs by fluorescence polarization based IMAP assay
[11] = Tmax in Sprague-Dawley rat at 10 mg/kg, po measured after 24 hrs by LC-MS analysis; type: ADME, organism-based; conditions: in vivo
[12] = Acute toxicity in C57BL/6J mouse assessed as druggability at 1 g/Kg, po administered for 14 days; type: organism-based; conditions: in vivo, 1000 mg/kg, 336 h, time 14 day
Mus musculus [13] = experiment: Protection against alcoholic liver disease in NIAAA C57BL/6J mouse model assessed as reduction in serum IL1-beta level at 1 to 2.5 mg/kg, po preadministered with 1 to 4 % of alcohol for 10 days with subsequent compound addition from day 6 to 11 and further administered with 31.25 % alcohol on day 11 and measured after 9 hrs by ELISA; type: functional, organism-based; conditions: dose 1-2.5 mg/kg, time 5.0 day
Mus musculus [14] = experiment: Protection against alcohol-induced motor impairment in C57BL/6J mouse model assessed as short recovery time by measuring latency to falling off at 2.5 mg/kg, po preadministered with compound every 24 hrs for 3 times followed by alcohol administration 30 mins post last dose and further treated with compound for 3 days followed by alcohol administration 30 mins post last dose and measured at 2 to 20 mins by rotarod test; type: functional, organism-based; conditions: time 8702-8720 min
[15] = Selectivity ratio for inhibition of PDE7A (unknown origin) using FAM-cyclic-3',5'-AMP as substrate to inhibition of PDE4B1 (unknown origin) using FAM-cyclic-3',5'-AMP as substrate
[16] = target: cGMP-inhibited 3',5'-cyclic phosphodiesterase 3B (Homo sapiens) (UniProt Q13370); experiment: Inhibition of PDE3B (unknown origin) using FAM-cyclic-3',5'-AMP as substrate at 10 uM incubated for 1 hrs by fluorescence polarization based IMAP assay relative to control
Mus musculus [17] = experiment: Protection against alcohol-induced sedation in C57BL/6J mouse model assessed as reduction in sleep time at 1 to 2.5 mg/kg, po preadministered with compound every 24 hrs for 3 times followed by alcohol administration 30 mins post last dose; type: functional, organism-based; conditions: dose 1-2.5 mg/kg, time 72.5 hrs
[18] = Volume of distribution at steady state in Sprague-Dawley rat at 2 mg/kg, iv measured after 24 hrs by LC-MS analysis; type: ADME, organism-based; conditions: in vivo, read-out: Vdss
[19] = target: High affinity cAMP-specific and IBMX-insensitive 3',5'-cyclic phosphodiesterase 8A (Homo sapiens) (UniProt O60658); experiment: Inhibition of PDE8A1 (unknown origin) using FAM-cyclic-3',5'-AMP as substrate at 10 uM incubated for 1 hrs by fluorescence polarization based IMAP assay relative to control
Mus musculus [20] = experiment: Protection against alcohol-induced motor impairment in C57BL/6J mouse model assessed as decrease in resting time at 1 to 2.5 mg/kg, po preadministered with compound every 24 hrs for 3 times followed by alcohol administration 30 mins post last dose and further treated with compound for 3 days followed by alcohol administration 30 mins post last dose and measured at 2 to 20 mins by open field test; type: functional, organism-based; conditions: dose 1-2.5 mg/kg, time 8702-8720 min
[21] = Cmax in Sprague-Dawley rat at 2 mg/kg, iv measured after 24 hrs by LC-MS analysis; type: ADME, organism-based; conditions: in vivo
[22] = Drug concentration in Sprague-Dawley rat brain at 10 mg/kg, po administered as single dose for 2 hrs by LC-MS analysis; type: ADME, organism-based; conditions: read-out: Ct
SH-SY5Y = experiment: Protection against alcohol-induced cytotoxicity in human SH-SY5Y cells assessed as increase in cell viability at 0.25 to 1 uM preincubated with compound for 1 hrs followed by ethanol administration and measured after 24 hrs by CCK8 assay; type: functional, cell-based; conditions: dose 0.25-1 µM, time 25.0 hrs
HT-22 = experiment: Cytotoxicity against mouse HT-22 cells assessed as reduction in cell viability incubated for 48 hrs by MTT assay; type: toxicity, cell-based; conditions: ht-22, 48 h
Mus musculus [23] = experiment: Protection against alcohol exposure-induced anxiety like behavior in C57BL/6J mouse model assessed as distance travelled at 1 to 2.5 mg/kg, po pre-trained with alcohol and water for 42 days with subsequent compound addition from day 22 to day 42 followed by 3.5 hrs of darkness and compound administration for 30 mins followed by water replacement with alcohol for 4 hrs and measured 24 hrs after alcohol withdrawal by open field test; type: functional, organism-based; conditions: dose 1-2.5 mg/kg
[24] = Half-life in Sprague-Dawley rat at 10 mg/kg, po measured after 24 hrs by LC-MS analysis; type: ADME, organism-based; conditions: in vivo

Chain of High affinity cAMP-specific and IBMX-insensitive 3',5'-cyclic phosphodiesterase 8A (Homo sapiens) (O60658 whole entry): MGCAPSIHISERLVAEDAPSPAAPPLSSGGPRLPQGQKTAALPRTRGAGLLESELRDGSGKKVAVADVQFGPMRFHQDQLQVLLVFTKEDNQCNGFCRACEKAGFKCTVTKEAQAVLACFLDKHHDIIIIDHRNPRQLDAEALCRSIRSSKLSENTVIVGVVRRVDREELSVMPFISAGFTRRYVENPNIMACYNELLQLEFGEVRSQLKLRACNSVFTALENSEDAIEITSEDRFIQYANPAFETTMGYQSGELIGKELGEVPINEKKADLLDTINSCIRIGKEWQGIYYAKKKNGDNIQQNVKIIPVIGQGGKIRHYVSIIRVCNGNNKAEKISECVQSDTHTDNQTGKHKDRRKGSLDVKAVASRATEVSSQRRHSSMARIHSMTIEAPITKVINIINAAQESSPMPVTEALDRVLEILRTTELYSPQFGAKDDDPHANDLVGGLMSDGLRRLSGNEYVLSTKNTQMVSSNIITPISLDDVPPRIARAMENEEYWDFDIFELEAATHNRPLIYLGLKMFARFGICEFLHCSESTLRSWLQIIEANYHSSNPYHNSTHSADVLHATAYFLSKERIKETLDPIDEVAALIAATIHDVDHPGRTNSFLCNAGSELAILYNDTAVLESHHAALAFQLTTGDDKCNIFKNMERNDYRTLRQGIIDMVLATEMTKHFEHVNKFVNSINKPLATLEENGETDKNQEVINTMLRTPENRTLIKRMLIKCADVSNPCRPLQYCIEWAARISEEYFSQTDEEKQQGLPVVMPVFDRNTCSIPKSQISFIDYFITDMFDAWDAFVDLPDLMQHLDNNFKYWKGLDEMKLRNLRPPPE
Chain of cGMP-inhibited 3',5'-cyclic phosphodiesterase 3B (Homo sapiens) (Q13370 whole entry, looked up): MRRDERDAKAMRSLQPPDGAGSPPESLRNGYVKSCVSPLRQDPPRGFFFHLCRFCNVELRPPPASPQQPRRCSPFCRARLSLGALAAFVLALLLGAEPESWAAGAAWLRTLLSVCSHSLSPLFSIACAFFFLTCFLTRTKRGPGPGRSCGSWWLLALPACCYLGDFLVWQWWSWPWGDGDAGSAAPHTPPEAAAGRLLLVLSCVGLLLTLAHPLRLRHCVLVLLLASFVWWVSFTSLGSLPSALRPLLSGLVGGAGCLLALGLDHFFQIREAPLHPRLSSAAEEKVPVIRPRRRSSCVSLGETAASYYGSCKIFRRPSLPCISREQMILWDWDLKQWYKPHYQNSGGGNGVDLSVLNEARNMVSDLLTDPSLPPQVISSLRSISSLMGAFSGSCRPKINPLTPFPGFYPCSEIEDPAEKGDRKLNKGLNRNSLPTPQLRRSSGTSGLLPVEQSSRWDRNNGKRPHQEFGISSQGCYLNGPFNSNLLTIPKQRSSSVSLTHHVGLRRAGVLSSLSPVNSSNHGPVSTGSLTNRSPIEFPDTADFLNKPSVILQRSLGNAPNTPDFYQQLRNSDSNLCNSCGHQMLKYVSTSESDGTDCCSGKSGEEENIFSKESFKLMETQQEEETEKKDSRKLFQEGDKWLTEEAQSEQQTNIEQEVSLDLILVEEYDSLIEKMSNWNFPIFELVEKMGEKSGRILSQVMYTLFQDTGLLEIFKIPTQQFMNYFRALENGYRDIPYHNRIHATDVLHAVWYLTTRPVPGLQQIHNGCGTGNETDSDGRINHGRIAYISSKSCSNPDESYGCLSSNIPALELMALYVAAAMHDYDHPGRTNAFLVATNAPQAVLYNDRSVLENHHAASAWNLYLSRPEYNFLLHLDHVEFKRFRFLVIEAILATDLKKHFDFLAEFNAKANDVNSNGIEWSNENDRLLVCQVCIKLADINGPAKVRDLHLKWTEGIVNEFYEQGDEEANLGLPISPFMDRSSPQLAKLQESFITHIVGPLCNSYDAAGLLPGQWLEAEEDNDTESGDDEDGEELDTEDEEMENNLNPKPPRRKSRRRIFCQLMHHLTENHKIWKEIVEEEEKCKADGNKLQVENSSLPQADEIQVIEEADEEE
Chain of 3',5'-cyclic-AMP phosphodiesterase 4D (Q08499 whole entry): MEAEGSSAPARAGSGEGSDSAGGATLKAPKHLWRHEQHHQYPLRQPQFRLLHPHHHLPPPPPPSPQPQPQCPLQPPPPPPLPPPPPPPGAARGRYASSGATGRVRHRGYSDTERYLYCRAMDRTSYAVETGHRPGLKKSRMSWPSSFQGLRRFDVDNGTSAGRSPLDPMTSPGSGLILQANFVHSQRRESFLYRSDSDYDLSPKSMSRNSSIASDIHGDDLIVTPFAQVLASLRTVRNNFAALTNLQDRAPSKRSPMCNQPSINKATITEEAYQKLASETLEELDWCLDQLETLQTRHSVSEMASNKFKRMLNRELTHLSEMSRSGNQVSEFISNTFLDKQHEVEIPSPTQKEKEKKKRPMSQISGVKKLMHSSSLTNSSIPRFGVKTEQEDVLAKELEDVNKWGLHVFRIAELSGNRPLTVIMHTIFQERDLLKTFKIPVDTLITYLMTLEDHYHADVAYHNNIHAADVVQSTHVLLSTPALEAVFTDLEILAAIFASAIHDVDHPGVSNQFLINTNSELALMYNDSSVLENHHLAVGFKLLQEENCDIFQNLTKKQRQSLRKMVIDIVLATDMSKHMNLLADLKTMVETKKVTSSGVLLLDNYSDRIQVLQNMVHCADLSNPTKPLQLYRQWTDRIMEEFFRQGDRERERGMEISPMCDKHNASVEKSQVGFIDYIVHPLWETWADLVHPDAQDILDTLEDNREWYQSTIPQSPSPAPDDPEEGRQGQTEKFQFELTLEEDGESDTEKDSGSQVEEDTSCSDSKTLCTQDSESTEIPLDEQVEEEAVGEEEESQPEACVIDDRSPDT

With `CCOc1nc(Cl)cc2c1cnn2CCCC(=O)O` the AUC(0-t) at 24 h [1] was 669 µg·h/mL, the half-life [2] was 3.65 h and the Activity (Mus musculus [3]) was “Active”. The Activity (Mus musculus [4]) was “Active”, the Activity (Mus musculus [5]) was “Active” and the Selectivity ratio [6] was over 267. For the same molecule, the Selectivity ratio [7] was over 267, the concentration at 2 h [8] was 27000 ng/mL and the Activity (Mus musculus [9]) was “Active”. For the same molecule, the IC50 [10] was 37.4 nM, the Tmax [11] was 4 h and the Activity [12] was “Non-Toxic”. The Activity (Mus musculus [13]) was “Active”, the Activity (Mus musculus [14]) was “Active” and the Selectivity ratio [15] was over 267. For the same molecule, the inhibition [16] was 10%, the Activity (Mus musculus [17]) was “Active” and the Vd [18] was 0.0719 L/kg. For the same molecule, the inhibition [19] was 9%, the Activity (Mus musculus [20]) was “Active” and the Cmax [21] was 23200 ng/mL. The concentration at 2 h [22] was 441 ng/g, the Activity (SH-SY5Y) was “Active” and the Activity (HT-22) was “Non-Toxic”. The Activity (Mus musculus [23]) was “Active” and the half-life [24] was 9.3 h.
